Laboratory results published in patent US20070128217A1 (priority 2003, published 2007).

Experiments:
[1] = test system: antibodies in sera from SARS patients (sera 1a, 1b, 2, 6, 37, 62, London, SARS-yellow, SARS-green); format: binding, human; design: Binding of serum 6 to linear peptides of protein X1 of SARS-CoV Urbani / Binding of serum 37 to linear peptides of protein X1 of SARS-CoV Urbani / Binding of serum 6 to looped/cyclic peptide (PEPSCAN-ELISA) / Binding of serum 37 to looped/cyclic peptide (PEPSCAN-ELISA) / Binding of serum 37 to looped/cyclic peptides of protein X1 of SARS-CoV Urbani / Binding of serum 6 to linear peptides of protein X2 / Binding of serum 37 to linear peptides of protein X2 / Binding of serum 37 to looped/cyclic peptides of protein X2 of SARS-CoV Urbani / Binding of serum 6 to linear peptides of protein M of SARS-CoV Urbani / Binding of serum 37 to linear peptides of protein M of SARS-CoV Urbani / Binding of serum 6 to looped/cyclic peptides of protein M of SARS-CoV Urbani / Binding of serum 37 to looped/cyclic peptides of protein M of SARS-CoV Urbani / Binding of serum 6 to linear peptides of protein X3 of SARS-CoV Urbani / Binding of serum 37 to linear peptides of protein X3 of SARS-CoV Urbani / Binding of serum 37 to looped/cyclic peptides of protein X3 of SARS-CoV Urbani / Binding of serum 6 to linear peptides of protein X4 of SARS-CoV Urbani / Binding of serum 37 to linear peptides of protein X4 of SARS-CoV Urbani / Binding of serum 37 to looped/cyclic peptides of protein X4 of SARS-CoV Urbani / Binding of serum 6 to linear peptides of protein X5 of SARS-CoV Urbani / Binding of serum 37 to linear peptides of protein X5 of SARS-CoV Urbani / Binding of serum 37 to looped/cyclic peptides of protein X5 of SARS-CoV Urbani / Binding of serum 6 to linear peptides of protein N of SARS-CoV Urbani / Binding of serum 37 to linear peptides of protein N of SARS-CoV Urbani / Binding of serum 6 to linear peptide (PEPSCAN-ELISA) / Binding of serum 1a to looped/cyclic peptides of protein N of SARS-CoV Urbani / Binding of serum 1b to looped/cyclic peptides of protein N of SARS-CoV Urbani / Binding of serum 2 to looped/cyclic peptides of protein N of SARS-CoV Urbani / Binding of serum 6 to looped/cyclic peptides of protein N of SARS-CoV Urbani / Binding of serum 37 to looped/cyclic peptides of protein N of SARS-CoV Urbani / Binding of serum 62 to looped/cyclic peptides of protein N of SARS-CoV Urbani / Binding of serum London to looped/cyclic peptides of protein N of SARS-CoV Urbani / Binding of serum SARS-green to looped/cyclic peptides of protein N of SARS-CoV Urbani: unit not given here
[2] = test system: control sera (pooled serum of ten healthy LUMC hospital workers; commercial negative donor pooled serum from the Dutch bloodbank); format: binding, human; design: Binding of Control serum LUMC to linear peptides / Binding of Control serum Blood-bank to linear peptides / Binding of Control serum LUMC to looped peptides / Binding of Control Serum Blood-Bank to Looped peptides / Binding of Control serum LUMC to linear peptides of the protein M of SARS-CoV Urbani / Binding of Control serum Blood-bank to linear peptides of the protein M of SARS-CoV Urbani / Binding of Control serum LUMC to looped peptides of the protein M of SARS-CoV Urbani / Binding of Control Serum Blood-Bank to Looped peptides of the protein M of SARS-CoV Urbani: unit not given here
[3] = test system: rabbit serum obtained by immunizing a rabbit with the SARS-CoV strain Frankfurt 1; format: binding; design: Binding of a rabbit serum to linear peptides / Binding of a rabbit serum to looped peptides / Rabbit serum linear peptides / Rabbit serum looped peptides / Binding of a rabbit serum to linear peptides of protein N of SARS-CoV Urbani (Rabbit serum linear peptides) / Binding of a rabbit serum to looped/cyclic peptides of protein N of SARS-CoV Urbani (Rabbit serum looped peptides): unit not given here

Sequence: NKFALTCTSTHFAFA
- Binding of serum 1a to linear peptides of protein X4 of SARS-CoV Urbani [1]: 0.6
- Binding of serum 1a to looped/cyclic peptides of protein X4 of SARS-CoV Urbani [1]: 0.9
- Binding of serum 1b to linear peptides of protein X4 of SARS-CoV Urbani [1]: 0.5
- Binding of serum 1b to looped/cyclic peptides of protein X4 of SARS-CoV Urbani [1]: 0.4
- Binding of serum 2 to linear peptides of protein X4 of SARS-CoV Urbani [1]: 0.4
- Binding of serum 2 to looped/cyclic peptides of protein X4 of SARS-CoV Urbani [1]: 0.8
- Binding of serum 6 to linear peptides of protein X4 of SARS-CoV Urbani [1]: 0.3
- Binding of serum 6 to looped/cyclic peptides of protein X4 of SARS-CoV Urbani [1]: 0.6
- Binding of serum 37 to linear peptides of protein X4 of SARS-CoV Urbani [1]: 0.7
- Binding of serum 37 to looped/cyclic peptides of protein X4 of SARS-CoV Urbani [1]: 0.7
- Binding of serum 62 to linear peptides of protein X4 of SARS-CoV Urbani [1]: 0.7
- Binding of serum 62 to looped/cyclic peptides of protein X4 of SARS-CoV Urbani [1]: 0.9
- Binding of serum London to linear peptides of protein X4 of SARS-CoV Urbani [1]: 0.7
- Binding of serum London to looped/cyclic peptides of protein X4 of SARS-CoV Urbani [1]: 0.3
- Binding of serum SARS-green to linear peptides of protein X4 of SARS-CoV Urbani [1]: 0.4
- Binding of serum SARS-green to looped/cyclic peptides of protein X4 of SARS-CoV Urbani [1]: 0.8
- Binding of serum SARS-yellow to linear peptides of protein X4 of SARS-CoV Urbani [1]: 0.5
- Binding of serum SARS-yellow to looped/cyclic peptides of protein X4 of SARS-CoV Urbani [1]: 0.7
- Binding of Control Serum Blood-Bank to Looped peptides [2]: 0.9
- Binding of Control serum Blood-bank to linear peptides [2]: 0.6
- Binding of Control serum LUMC to linear peptides [2]: 0.5
- Binding of Control serum LUMC to looped peptides [2]: 0.8
- Rabbit serum linear peptides [3]: 0.5
- Rabbit serum looped peptides [3]: 0.5

Sequence: NKRWQLALYKGFQFI
- Binding of serum 1a to linear peptides of protein X1 of SARS-CoV Urbani [1]: 0.7
- Binding of serum 1a to looped/cyclic peptide (PEPSCAN-ELISA) [1]: 0.6
- Binding of serum 1b to linear peptides of protein X1 of SARS-CoV Urbani [1]: 0.5
- Binding of serum 1b to looped/cyclic peptide (PEPSCAN-ELISA) [1]: 0.4
- Binding of serum 2 to linear peptides of protein X1 of SARS-CoV Urbani [1]: 0.7
- Binding of serum 2 to looped/cyclic peptide (PEPSCAN-ELISA) [1]: 0.5
- Binding of serum 6 to linear peptides of protein X1 of SARS-CoV Urbani [1]: 0.8
- Binding of serum 6 to looped/cyclic peptide (PEPSCAN-ELISA) [1]: 0.5
- Binding of serum 37 to linear peptides of protein X1 of SARS-CoV Urbani [1]: 0.6
- Binding of serum 37 to looped/cyclic peptide (PEPSCAN-ELISA) [1]: 0.6
- Binding of serum 62 to linear peptides of protein X1 of SARS-CoV Urbani [1]: 0.6
- Binding of serum 62 to looped/cyclic peptide (PEPSCAN-ELISA) [1]: 0.7
- Binding of serum London to linear peptides of protein X1 of SARS-CoV Urbani [1]: 0.3
- Binding of serum London to looped/cyclic peptide (PEPSCAN-ELISA) [1]: 0.4
- Binding of serum SARS-green to linear peptides of protein X1 of SARS-CoV Urbani [1]: 0.3
- Binding of serum SARS-green to looped/cyclic peptide (PEPSCAN-ELISA) [1]: 0.2
- Binding of serum SARS-yellow to linear peptides of protein X1 of SARS-CoV Urbani [1]: 0.3
- Binding of serum SARS-yellow to looped/cyclic peptide (PEPSCAN-ELISA) [1]: 0.5
- Binding of Control Serum Blood-Bank to Looped peptides [2]: 0.7
- Binding of Control serum Blood-bank to linear peptides [2]: 0.6
- Binding of Control serum LUMC to linear peptides [2]: 0.6
- Binding of Control serum LUMC to looped peptides [2]: 0.7
- Recognition of the peptide by the rabbit serum [3]: recognized
